Results published in patent US8309718B2, “4-pyrazolyl-N-arylpyrimidin-2-amines and 4-pyrazolyl-N-heteroarylpyrimidin-2-amines as janus kinase inhibitors” (Incyte Corporation, priority 2007, dated 2012).

Biological target: T1, human JAK2 (Homo sapiens, UniProt O60674)
T1 construct: JAK2 (a.a. 828-1132); His tag (N); made in house; host or cells: insect cells (baculovirus)
Assay: In vitro JAK kinase assay (HTRF, phosphorylation of biotinylated peptide)
Format: biochemical
Conditions: catalytic domain a.a. 828-1132, 30 μM ATP, 500 nM peptide, room temperature 1 hr; read-out: JAK-2 IC50
Method in brief: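 His-tagged human JAK2 catalytic domain (a.a. 828-1132), baculovirus/insect-cell expressed; phosphorylation of 500 nM biotinylated peptide at 30 μM ATP in 50 mM Tris pH 7.8, 100 mM NaCl, 5 mM DTT, 0.01% BSA. 1 h at room temperature, EDTA stop, HTRF read (Eu-Py20/SA-APC); IC50.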

T1 sequence (O60674 828-1132): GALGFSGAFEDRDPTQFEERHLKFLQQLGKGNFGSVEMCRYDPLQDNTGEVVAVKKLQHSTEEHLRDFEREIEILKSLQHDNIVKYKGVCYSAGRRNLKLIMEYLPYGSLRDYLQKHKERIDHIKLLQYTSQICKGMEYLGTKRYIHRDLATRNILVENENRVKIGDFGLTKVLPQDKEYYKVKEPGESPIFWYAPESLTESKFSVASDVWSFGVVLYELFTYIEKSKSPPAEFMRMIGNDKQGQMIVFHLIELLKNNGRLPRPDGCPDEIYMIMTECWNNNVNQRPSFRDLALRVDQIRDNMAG

IC50	Structure (SMILES)
< 100 nM	CN(C)C(=O)C1CCN(C(=O)c2ccc(Nc3nccc(-c4cnn(C(CC#N)C5CCCC5)c4)n3)cc2)CC1 (racemic) [Example 234, 1-(4-(4-(1-(2-cyano-1-cyclopentylethyl)-1H-pyrazol-4-yl)pyrimidin-2-ylamino)benzoyl)-N,N-dimethylpiperidine-4-carboxamide]
< 100 nM	CN1CCN(CC(=O)Nc2cccc(Nc3nccc(-c4cnn(C(CC#N)C5CCCC5)c4)n3)c2)CC1 (racemic) [Example 236, N-(3-(4-(1-(2-cyano-1-cyclopentylethyl)-1H-pyrazol-4-yl)pyrimidin-2-ylamino)phenyl)-2-(4-methylpiperazin-1-yl)acetamide]
< 100 nM	N#CCC(C1CCCC1)n1cc(-c2ccnc(Nc3cccc(NC(=O)CN4CCNC(=O)C4)c3)n2)cn1 (racemic) [Example 238, N-(3-(4-(1-(2-cyano-1-cyclopentylethyl)-1H-pyrazol-4-yl)pyrimidin-2-ylamino)phenyl)-2-(3-oxopiperazin-1-yl)acetamide]
< 100 nM	N#CCC(C1CCCC1)n1cc(-c2ccnc(Nc3cccc(NC(=O)CN4CCC(O)CC4)c3)n2)cn1 (racemic) [Example 239, N-(3-(4-(1-(2-cyano-1-cyclopentylethyl)-1H-pyrazol-4-yl)pyrimidin-2-ylamino)phenyl)-2-(4-hydroxypiperidin-1-yl)acetamide]
< 100 nM	N#CCC(C1CCCC1)n1cc(-c2ccnc(Nc3cccc(NC(=O)CN4CCN(CCO)CC4)c3)n2)cn1 (racemic) [Example 240, N-(3-(4-(1-(2-cyano-1-cyclopentylethyl)-1H-pyrazol-4-yl)pyrimidin-2-ylamino)phenyl)-2-(4-(2-hydroxyethyl)piperazin-1-yl)acetamide]
< 100 nM	N#CCC(C1CCCC1)n1cc(-c2ccnc(Nc3cccc(NC(=O)CNCC4CC4)c3)n2)cn1 (racemic) [Example 241, N-(3-(4-(1-(2-cyano-1-cyclopentylethyl)-1H-pyrazol-4-yl)pyrimidin-2-ylamino)phenyl)-2-(cyclopropylmethylamino)acetamide]
< 100 nM	N#CCC(C1CCCC1)n1cc(-c2ccnc(Nc3cccc(NC(=O)CN4CCOCC4)c3)n2)cn1 (racemic) [Example 242, N-(3-(4-(1-(2-cyano-1-cyclopentylethyl)-1H-pyrazol-4-yl)pyrimidin-2-ylamino)phenyl)-2-morpholinoacetamide]
< 100 nM	CCNCC(=O)Nc1cccc(Nc2nccc(-c3cnn(C(CC#N)C4CCCC4)c3)n2)c1 (racemic) [Example 243, N-(3-(4-(1-(2-cyano-1-cyclopentylethyl)-1H-pyrazol-4-yl)pyrimidin-2-ylamino)phenyl)-2-(ethylamino)acetamide]
< 100 nM	N#CCC(C1CC1)n1cc(-c2ccnc(Nc3ccc(C(=O)N4CCC(O)CC4)cc3)n2)cn1 (racemic) [Example 251, 3-cyclopropyl-3-(4-(2-(4-(4-hydroxypiperidine-1-carbonyl)phenylamino)pyrimidin-4-yl)-1H-pyrazol-1-yl)propanenitrile]
< 100 nM	N#CCC(C1CC1)n1cc(-c2ccnc(Nc3ccc(C(=O)N4[C@@H]5CC[C@H]4C[C@@H](O)C5)cc3)n2)cn1 (mixture of isomers) [Example 252, 3-cyclopropyl-3-(4-(2-(4-((3-endo)-3-hydroxy-8-azabicyclo[3.2.1]octane-8-carbonyl)phenylamino)pyrimidin-4-yl)-1H-pyrazol-1-yl)propanenitrile]
< 100 nM	N#CCC(C1CC1)n1cc(-c2ccnc(Nc3ccc(C(=O)N4CCCC4)cc3)n2)cn1 (racemic) [Example 253, 3-cyclopropyl-3-(4-(2-(4-(pyrrolidine-1-carbonyl)phenylamino)pyrimidin-4-yl)-1H-pyrazol-1-yl)propanenitrile]
< 100 nM	N#CCC(C1CC1)n1cc(-c2ccnc(Nc3ccc(C(=O)NC4CCOCC4)cc3)n2)cn1 (racemic) [Example 254, 4-(4-(1-(2-cyano-1-cyclopropylethyl)-1H-pyrazol-4-yl)pyrimidin-2-ylamino)-N-(tetrahydro-2H-pyran-4-yl)benzamide]
< 100 nM	N#CCC(C1CC1)n1cc(-c2ccnc(Nc3ccc(C(=O)N4CCOCC4)cc3)n2)cn1 (racemic) [Example 260, 3-cyclopropyl-3-(4-(2-(4-(morpholine-4-carbonyl)phenylamino)pyrimidin-4-yl)-1H-pyrazol-1-yl)propanenitrile]
< 100 nM	N#CCC(C1CC1)n1cc(-c2ccnc(Nc3ccc(C(=O)N4CCC4)cc3)n2)cn1 (racemic) [Example 261, 3-(4-(2-(4-(azetidine-1-carbonyl)phenylamino)pyrimidin-4-yl)-1H-pyrazol-1-yl)-3-cyclopropylpropanenitrile]
< 100 nM	N#CCC(C1CC1)n1cc(-c2ccnc(Nc3ccc(C(=O)N4C5CC6CC4CC(C5)O6)cc3)n2)cn1 (racemic) [Example 262, 3-cyclopropyl-3-(4-(2-(4-(2-oxa-6-azatricyclo[3.3.1.1(3,7)]dec-6-ylcarbonyl)phenyl)aminopyrimidin-4-yl)-1H-pyrazol-1-yl)propanenitrile]
< 100 nM	COC1CCN(C(=O)c2ccc(Nc3nccc(-c4cnn(C(CC#N)C5CC5)c4)n3)cc2)CC1 (racemic) [Example 263, 3-cyclopropyl-3-(4-(2-(4-(4-methoxypiperidine-1-carbonyl)phenylamino)pyrimidin-4-yl)-1H-pyrazol-1-yl)propanenitrile]
< 100 nM	CN1CCN(C(=O)c2ccc(Nc3nccc(-c4cnn(C(CC#N)C5CC5)c4)n3)cc2)CC1 (racemic) [Example 267, 3-cyclopropyl-3-(4-(2-(4-(4-methylpiperazine-1-carbonyl)phenylamino)pyrimidin-4-yl)-1H-pyrazol-1-yl)propanenitrile]
< 100 nM	CC(=O)N1CCN(C(=O)c2ccc(Nc3nccc(-c4cnn(C(CC#N)C5CC5)c4)n3)cc2)CC1 (racemic) [Example 269, 3-(4-(2-(4-(4-acetylpiperazine-1-carbonyl)phenylamino)pyrimidin-4-yl)-1H-pyrazol-1-yl)-3-cyclopropylpropanenitrile]
< 100 nM	CCOC(=O)N1CCC(NC(=O)c2ccc(Nc3nccc(-c4cnn(C(CC#N)C5CC5)c4)n3)cc2)CC1 (racemic) [Example 272, Ethyl 4-(4-(4-(1-(2-cyano-1-cyclopropylethyl)-1H-pyrazol-4-yl)pyrimidin-2-ylamino)benzoyl)aminopiperidine-1-carboxylate]
< 100 nM	CCS(=O)(=O)N1CC(CC#N)(n2cc(-c3ccnc(Nc4ccc(C(=O)N5CCC(N(C)C)C5)cc4)n3)cn2)C1 (racemic) [Example 282, 2-(3-(4-(2-(4-(3-(dimethylamino)pyrrolidine-1-carbonyl)phenylamino)pyrimidin-4-yl)-1H-pyrazol-1-yl)-1-(ethylsulfonyl)azetidin-3-yl)acetonitrile]
< 100 nM	COc1cnc(Nc2ccc(C(=O)N3CCOCC3)cc2)nc1-c1cnn(C(CC#N)C2CCCC2)c1 (racemic) [Example 302, 3-cyclopentyl-3-(4-(5-methoxy-2-(4-(morpholine-4-carbonyl)phenylamino)pyrimidin-4-yl)-1H-pyrazol-1-yl)propanenitrile]
< 100 nM	COc1cnc(Nc2ccc(C(=O)N3CCCC3)cc2)nc1-c1cnn(C(CC#N)C2CCCC2)c1 (racemic) [Example 303, 3-cyclopentyl-3-(4-(5-methoxy-2-(4-(pyrrolidine-1-carbonyl)phenylamino)pyrimidin-4-yl)-1H-pyrazol-1-yl)propanenitrile]
< 100 nM	COc1cnc(Nc2ccc(C(=O)N3CCN(C)CC3)cc2)nc1-c1cnn(C(CC#N)C2CCCC2)c1 (racemic) [Example 304, 3-cyclopentyl-3-(4-(5-methoxy-2-(4-(4-methylpiperazine-1-carbonyl)phenylamino)pyrimidin-4-yl)-1H-pyrazol-1-yl)propanenitrile]
< 100 nM	COc1cnc(Nc2ccc(C(=O)NC3CCOCC3)cc2)nc1-c1cnn(C(CC#N)C2CCCC2)c1 (racemic) [Example 305, 4-(4-(1-(2-cyano-1-cyclopentylethyl)-1H-pyrazol-4-yl)-5-methoxypyrimidin-2-ylamino)-N-(tetrahydro-2H-pyran-4-yl)benzamide]
< 100 nM	N#CCC(C1CCCC1)n1cc(-c2ccnc(Nc3ccc(OCCN4CCCC4)cc3)n2)cn1 (racemic) [Example 306, 3-cyclopentyl-3-[4-(2-{[4-(2-pyrrolidin-1-ylethoxy)phenyl]amino}pyrimidin-4-yl)-1H-pyrazol-1-yl]propanenitrile]
< 100 nM	N#CCC(C1CCOCC1)n1cc(-c2ccnc(Nc3ccc(N4CCOCC4)cc3)n2)cn1 (racemic) [Example 308, 3-(4-{2-[(4-morpholin-4-ylphenyl)amino]pyrimidin-4-yl}-1H-pyrazol-1-yl)-3-(tetrahydro-2H-pyran-4-yl)propanenitrile]
< 100 nM	N#CCC(C1CCOCC1)n1cc(-c2ccnc(Nc3ccc(C(=O)N4CCCC4)cc3)n2)cn1 (racemic) [Example 310, 3-[4-(2-{[4-(pyrrolidin-1-ylcarbonyl)phenyl]amino}pyrimidin-4-yl)-1H-pyrazol-1-yl]-3-(tetrahydro-2H-pyran-4-yl)propanenitrile]
< 100 nM	N#CCC(C1CCOCC1)n1cc(-c2ccnc(Nc3ccc(C(=O)N4CCOCC4)cc3)n2)cn1 (racemic) [Example 311, 3-[4-(2-{[4-(morpholin-4-ylcarbonyl)phenyl]amino}pyrimidin-4-yl)-1H-pyrazol-1-yl]-3-(tetrahydro-2H-pyran-4-yl)propanenitrile]
< 100 nM	N#CCC(C1CCOCC1)n1cc(-c2ccnc(Nc3ccc(C(=O)N4CCC(O)CC4)cc3)n2)cn1 (racemic) [Example 312, 3-{4-[2-({4-[(4-hydroxypiperidin-1-yl)carbonyl]phenyl}amino)pyrimidin-4-yl]-1H-pyrazol-1-yl}-3-(tetrahydro-2H-pyran-4-yl)propanenitrile]
